In PubChem BioAssay AID1963978 (Molecular Pharmacology Branch, DTP, NCI, 2024):

Test system: 616215-338-R-J1-PDC spheroids with HUVEC/MSC, viability
Assay: Anticancer human tumor 616215-338-R-J1-PDC patient-derived colon adenocarcinoma cell line growth inhibition [PI3K]
Details: for IC50: curve of first compound; for viability, T/C: stronger effect = lower value
Method in brief: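 Tumor cells grown as multi-cell spheroids with HUVEC endothelial cells and MSC fibroblast-like stroma were treated with targeted agents combined with inavolisib, alpelisib, duvelisib or copanlisib. Doses fell in half-log steps from near clinical Cmax, else from 10 microM. Viability was measured.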
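Note: spheroids exposed to agents for seven days before the viability read.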

SMILES: C[C@@H](NC(=O)c1ncnc(N)c1Cl)c1ncc(C(=O)Nc2cc(C(F)(F)F)c(Cl)cn2)s1 + Cc1nc(NC(=O)N2CCCC2C(N)=O)sc1-c1ccnc(C(C)(C)C(F)(F)F)c1
- IC50 (second compound 0.0316 µM): > 10000 nM
- IC50 (second compound 0.1 µM): > 10000 nM
- IC50 (second compound 0.316 µM): > 10000 nM
- IC50 (second compound 1 µM): > 10000 nM
- IC50 (second compound 3.16 µM): > 10000 nM
- IC50 (second compound 10 µM): 4850 nM
- viability, T/C (second compound 0.0316 µM, first compound 0.0316 µM): 91.9%
- viability, T/C (second compound 0.0316 µM, first compound 0.1 µM): 101%
- viability, T/C (second compound 0.0316 µM, first compound 0.316 µM): 94.3%
- viability, T/C (second compound 0.0316 µM, first compound 1 µM): 105%
- viability, T/C (second compound 0.0316 µM, first compound 3.16 µM): 112%
- viability, T/C (second compound 0.0316 µM, first compound 10 µM): 89.2%
- viability, T/C (second compound 0.1 µM, first compound 0.0316 µM): 111%
- viability, T/C (second compound 0.1 µM, first compound 0.1 µM): 99.1%
- viability, T/C (second compound 0.1 µM, first compound 0.316 µM): 101%
- viability, T/C (second compound 0.1 µM, first compound 1 µM): 115%
- viability, T/C (second compound 0.1 µM, first compound 3.16 µM): 93.7%
- viability, T/C (second compound 0.1 µM, first compound 10 µM): 77.7%
- viability, T/C (second compound 0.316 µM, first compound 0.0316 µM): 107%
- viability, T/C (second compound 0.316 µM, first compound 0.1 µM): 110%
- viability, T/C (second compound 0.316 µM, first compound 0.316 µM): 106%
- viability, T/C (second compound 0.316 µM, first compound 1 µM): 119%
- viability, T/C (second compound 0.316 µM, first compound 3.16 µM): 109%
- viability, T/C (second compound 0.316 µM, first compound 10 µM): 77.2%
- viability, T/C (second compound 1 µM, first compound 0.0316 µM): 112%
- viability, T/C (second compound 1 µM, first compound 0.1 µM): 112%
- viability, T/C (second compound 1 µM, first compound 0.316 µM): 107%
- viability, T/C (second compound 1 µM, first compound 1 µM): 108%
- viability, T/C (second compound 1 µM, first compound 3.16 µM): 108%
- viability, T/C (second compound 1 µM, first compound 10 µM): 62.3%
- viability, T/C (second compound 3.16 µM, first compound 0.0316 µM): 102%
- viability, T/C (second compound 3.16 µM, first compound 0.1 µM): 112%
- viability, T/C (second compound 3.16 µM, first compound 0.316 µM): 103%
- viability, T/C (second compound 3.16 µM, first compound 1 µM): 98.9%
- viability, T/C (second compound 3.16 µM, first compound 3.16 µM): 81.1%
- viability, T/C (second compound 3.16 µM, first compound 10 µM): 53.1%
- viability, T/C (second compound 10 µM, first compound 0.0316 µM): 97.5%
- viability, T/C (second compound 10 µM, first compound 0.1 µM): 107%
- viability, T/C (second compound 10 µM, first compound 0.316 µM): 88.9%
- viability, T/C (second compound 10 µM, first compound 1 µM): 104%
- viability, T/C (second compound 10 µM, first compound 3.16 µM): 68.3%
- viability, T/C (second compound 10 µM, first compound 10 µM): 19.2%

SMILES: Cn1cnc2c(F)c(Nc3ccc(Br)cc3Cl)c(C(=O)NOCCO)cc21 + CC(Nc1ccc2c(c1)OCCn1cc(N3C(=O)OCC3C(F)F)nc1-2)C(N)=O
- IC50 (second compound 0.00316 µM): 1400 nM
- IC50 (second compound 0.01 µM): 1160 nM
- IC50 (second compound 0.0316 µM): 764 nM
- IC50 (second compound 0.1 µM): 982 nM
- IC50 (second compound 0.316 µM): 495 nM
- IC50 (second compound 1 µM): 408 nM
- viability, T/C (second compound 0.00316 µM, first compound 0.00949 µM): 96.5%
- viability, T/C (second compound 0.00316 µM, first compound 0.03 µM): 98.9%
- viability, T/C (second compound 0.00316 µM, first compound 0.0949 µM): 83.7%
- viability, T/C (second compound 0.00316 µM, first compound 0.3 µM): 76%
- viability, T/C (second compound 0.00316 µM, first compound 0.949 µM): 56.8%
- viability, T/C (second compound 0.00316 µM, first compound 3 µM): 36.5%
- viability, T/C (second compound 0.01 µM, first compound 0.00949 µM): 94.6%
- viability, T/C (second compound 0.01 µM, first compound 0.03 µM): 91%
- viability, T/C (second compound 0.01 µM, first compound 0.0949 µM): 87.8%
- viability, T/C (second compound 0.01 µM, first compound 0.3 µM): 71.8%
- viability, T/C (second compound 0.01 µM, first compound 0.949 µM): 54.7%
- viability, T/C (second compound 0.01 µM, first compound 3 µM): 31.4%
- viability, T/C (second compound 0.0316 µM, first compound 0.00949 µM): 96.1%
- viability, T/C (second compound 0.0316 µM, first compound 0.03 µM): 110%
- viability, T/C (second compound 0.0316 µM, first compound 0.0949 µM): 77.2%
- viability, T/C (second compound 0.0316 µM, first compound 0.3 µM): 77.5%
- viability, T/C (second compound 0.0316 µM, first compound 0.949 µM): 38.3%
- viability, T/C (second compound 0.0316 µM, first compound 3 µM): 38.8%
- viability, T/C (second compound 0.1 µM, first compound 0.00949 µM): 106%
- viability, T/C (second compound 0.1 µM, first compound 0.03 µM): 86.9%
- viability, T/C (second compound 0.1 µM, first compound 0.0949 µM): 87.2%
- viability, T/C (second compound 0.1 µM, first compound 0.3 µM): 65.2%
- viability, T/C (second compound 0.1 µM, first compound 0.949 µM): 48.9%
- viability, T/C (second compound 0.1 µM, first compound 3 µM): 37%
- viability, T/C (second compound 0.316 µM, first compound 0.00949 µM): 109%
- viability, T/C (second compound 0.316 µM, first compound 0.03 µM): 94.8%
- viability, T/C (second compound 0.316 µM, first compound 0.0949 µM): 79.4%
- viability, T/C (second compound 0.316 µM, first compound 0.3 µM): 57.4%
- viability, T/C (second compound 0.316 µM, first compound 0.949 µM): 39%
- viability, T/C (second compound 0.316 µM, first compound 3 µM): 35.9%
- viability, T/C (second compound 1 µM, first compound 0.00949 µM): 106%
- viability, T/C (second compound 1 µM, first compound 0.03 µM): 85.1%
- viability, T/C (second compound 1 µM, first compound 0.0949 µM): 79.7%
- viability, T/C (second compound 1 µM, first compound 0.3 µM): 51.6%
- viability, T/C (second compound 1 µM, first compound 0.949 µM): 37.5%
- viability, T/C (second compound 1 µM, first compound 3 µM): 26.4%
